Converted amounts (≈) assume the structure as drawn. Where two headings read alike, the source gives them in different places. Values belong to the molecule of their own block, whether it stands above or below them.
Columns and labels:
[1] = set-up: method as in PMID 19930170; conditions: mice; oral administration of L-dopa and carbidopa; cited from earlier work
[2] = PAMPA, 5 h, 200 µM
Description: (§5) The HPLC system consisted of an Agilent 1200 series HPLC system with a binary gradient pump, autosampler and vacuum degasser coupled to an Agilent 1200 series variable-wavelength detector (Santa Clara, CA, USA). The analyses were carried out with Venusil XBP C18 column (4.60 mm × 150 mm, 5 μm, Bonna-Agela Technologies, Wilmington, DE, USA). […] The effluent was monitored at 276 nm. […] The effluent was monitored at 280 nm. A volume of 20 µL of the samples was injected into the HPLC system.
(§6) The precoated parallel artificial membrane permeability assay (PAMPA) plate system was obtained from BD Biosciences. Prior to use, the pre-coated PAMPA plates were warmed to room temperature for at least 30 min. Once warmed to room temperature, the plate system was used within 24 h. A volume of 300 µL of the test compound solution in potassium phosphate buffer (100 mM, pH 6.4, 7.4 and 7.8) or in sodium acetate buffer (50 mM, pH 3.7, 4.7 and 5.7) was added per well in the receiver/donor plate (bottom). The final concentration of the test compounds was 200 µM in each well. A volume of 200 µL of potassium phosphate buffer (100 mM, pH 6.4, 7.4 and 7.8) or sodium acetate buffer (50 mM, pH 3.7, 4.7 and 5.7) was then added per well to the filter/acceptor plate (top). The filter plate was placed on the receiver plate by slowly lowering the precoated PAMPA plate until it was seated on the receiver plate. The assembly was incubated at room temperature for 5 h. The precoated PAMPA plate and the receiver plate were separated. The compound concentrations were determined using the HPLC system described above. The permeability values are given as mean ± standard deviation of triplicate determinations [38].

[3] = test system: striatal monoamines and metabolites; conditions: for concentration reached in the brain: mouse, in vivo
Description: The delivery of dopamine by the prodrug was thus indirectly assessed by measuring dopamine levels in the striatal tissue of mice following treatment with the prodrug. For this purpose, the measurement of dopamine metabolites and other monoamine neurotransmitters and their metabolites was also included. […] Another four groups (n = 3 mice/group) were treated in the same manner by intraperitoneal injection. The animals were sacrificed 60 min after treatment, the striata were dissected and the concentrations of dopamine, 3,4-dihydroxyphenylacetic acid (DOPAC), homovanillic acid (HVA), noradrenaline, serotonin and 5-hydroxyindoleacetic acid (HIAA) were measured [40].
Male C57BL/6 mice were weighed and allocated into 4 groups of 3 mice each. […] A second set of 4 groups (n = 3) were treated in the same manner by intraperitoneal injection. All solutions were prepared in sterile saline and administered at volumes of 0.1 mL for oral gavage and 0.2 mL for intraperitoneal injection. The animals were euthanised 60 min after treatment and the striata were dissected and stored at −80 °C until the day of the experiment. The concentrations of dopamine, 3,4-dihydroxyphenylacetic acid (DOPAC), homovanillic acid (HVA), noradrenaline, serotonin and 5-hydroxyindoleacetic acid (5-HIAA) were determined according to the published protocol, and are reported as mean ± standard deviation of each group [40]. Prism version 5 (GraphPad Software, San Diego, CA, USA) was used for the statistical analyses and for the preparation of graphical presentations. Data were analysed by one-way analysis of variance (ANOVA) across all groups, and were subsequently subjected to the Dunnett’s post-hoc test to determine statistical differences between the means. A p-value of <0.05 indicates a statistically significant difference.

[4] = set-up: method as in PMID 20646792; conditions: after oral administration of L-dopa prodrugs to rats; cited from earlier work
[5] = in vitro; conditions: PAMPA
Description: as §5, §6

[6] = test system: HeLa cells; test: MTT cell viability assay; type: cell-based, human; conditions: 100 µM, 24 h
Text: (§1) For this purpose, the MTT cell viability assay was used. The MTT assay is a standard cell viability assay, measuring mitochondrial activity in live (metabolically viable) cells. Metabolically active mitochondria in viable cells have the ability to reduce MTT to coloured formazan crystals that can be quantitated spectrophotometrically. The presence of a toxic agent will reduce cell viability and thus limit the reduction of MTT to the formazan product. For this study, HeLa cells were selected. This selection was based on the high growth rate of HeLa cells and on the observation that these cells are frequently used to measure cell viability in the presence of toxic agents.
(§2) HeLa cells were maintained in 250 cm^2 flasks in 30 mL Dulbecco’s Modified Eagle Medium (DMEM) containing 10% fetal bovine serum, 1% penicillin (10,000 units/mL)/streptomycin (10 mg/mL) and 0.1% fungizone (250 µg/mL). The cells were incubated at 37 °C in an atmosphere of 10% CO2. Once confluent, the cells were seeded at 500,000 cells/well in 24-well plates and incubated for 24 h. A volume of 3 mL trypsin/EDTA (0.25%/0.02%) was used to facilitate cell detachment and the counting of cells was done with a haemocytometer. The wells were subsequently rinsed with 0.5 mL DMEM containing no fetal bovine serum. A volume of 0.99 mL DMEM (containing no fetal bovine serum) was subsequently added to each well followed by 10 µL of the test drug. Stock solutions of the test drugs were prepared in deionised water and sterilised via a 0.22 µm syringe filter. In each 24-well plate, wells were reserved as positive controls (100% cell death via lyses with 0.3% formic acid) and negative controls (0% cell death as a result of no treatment). The well-plates were incubated for a further 24 h after which the culture medium was aspirated from the cells. The wells were washed twice with 0.5 mL/well phosphate-buffered saline (PBS) and 200 µL of 0.05% MTT reagent (3-(4,5-dimethylthiazol-2-yl)-2,5-diphenyltetrazolium bromide) in PBS was added to each well. The well-plates were incubated at 37 °C for 2 h in the dark, the MTT reagent was aspirated from the wells and 250 µL isopropanol was added to each well. The well-plates were then incubated at room temperature for 5 min to dissolve the purple formazan crystals, whereafter 100 µL of the isopropanol phase was transferred to a 96-well plate. The absorbance of each isopropanol phase was measured spectrophotometrically at 560 nm.

[7] = MTT cell viability assay; type: cell-based, human; conditions: human, HeLa cells, read-out: percentage of viable cells remaining
Text: as §1, §2

[8] = cited from earlier work
[9] = Plasma stability, human plasma; type: in vitro ADME; conditions: 37 °C, approx. 200 µM spiked
Description: (§3) The effluent was monitored at 276 nm. […] The effluent was monitored at 280 nm.
(§4) Plasma was collected in 0.5 mL MiniCollect® heparin plasma tubes (Greiner Bio-One, Kremsmünster, Austria) and centrifuged at 5500 rpm. Liver and brain tissue were collected, placed on ice and rinsed with 0.25 M sucrose dissolved in water. Sucrose solution was added to the tissue at a ratio 1:3 (w/v), the tissues were cut into small pieces using scissors and homogenised by 2 passes (60 s each) using a Potter–Elvehjem homogeniser (1200 rev/min, Potter–Elvehjem, Kennesaw, GA, USA). Care was taken to cool the homogeniser in ice during this procedure. […] The stock solution was immediately diluted to approximately 200 µM into plasma or tissue homogenate (preheated to 37 °C) and the resulting mixtures were analysed by the HPLC method described above. For this purpose, 100 µL of the spiked plasma or tissue homogenate was added to 300 µL acetonitrile (containing formic acid 1%) in a Phree tube. The tube was vortexed for 2 min and filtered under vacuum (9–10 mmHg). The collected solvent was evaporated under a stream of air, and the residue was redissolved in 100 µL methanol. A volume of 300 µL water was added and 20 µL of the resulting solution was analysed by the HPLC system. […] The concentration of lazabemide was also determined.

[10] = Solubility in water and potassium phosphate buffer; type: physicochemical; conditions: thermodynamic from solid, 37 °C
Description: This yielded a theoretical concentration of 6.0 mg/mL. The tubes were agitated for 24 h in a water bath at 37 °C and were subsequently centrifuged at 16,000× g for 10 min. The samples were filtered through a 0.22 µm syringe filter and diluted 150-fold into water or potassium phosphate buffer (100 mM, pH 7.4). The absorbances of the resulting solutions were recorded at a wavelength of maximal absorbance of 276 nm.

[11] = Plasma stability, rat plasma; type: in vitro ADME; conditions: 37 °C, approx. 200 µM spiked
Description: as §3, §4

[12] = Tissue stability, rat liver homogenate; type: in vitro ADME; conditions: 37 °C
Description: as §3, §4

[13] = Shake-flask logD determination (n-octanol/buffer); conditions: n-octanol/potassium phosphate buffer 100 mM
Description: (§7) n-Octanol (analytical reagent from Sigma-Aldrich) and the appropriate buffer were mutually saturated in a separatory funnel. Potassium phosphate buffer (100 mM) at pH 6.4, 7.4 and 7.8 served as the aqueous buffer phases. […] The vessels were shaken by hand for 5 min and centrifuged at 4000× g for 10 min. […] The logD value at a given pH is equal to the logarithm of the octanol/buffer partition coefficients (D). […] LogD values are given as mean ± standard deviation of triplicate determinations. Using the same protocol as above, the logD values at pH 6.4, 7.4 and 7.8 for lazabemide were also determined.

[14] = Chemical stability in aqueous buffer (HPLC); type: physicochemical; conditions: 50 µM, room temperature
Description: as §3
The stock solution was immediately diluted to 50 µM and the resulting solution was analysed by the HPLC method described above. The first injection served as reference point, after which the same solution was again injected at 1 h, 3 h, 6 h, 9 h and 11 h. During this time, the test solution remained at room temperature in the autosampler tray. The stabilities of the prodrug in the selected buffer phases are reported as the percentage mean ± standard deviation of the first injection, which served as reference point.

[15] = Ionisation constant (pKa) by potentiometric titration; type: physicochemical
Description: The prodrug was titrated in 0.1 mL increments and the pH was recorded after each addition. A total of 1 mL KOH was added to fully neutralise the primary amine group of the prodrug. The results were subsequently tabulated according to the method described in literature, and the pKa value was calculated.

[16] = physchem
Description: as §7

[17] = test system: brain MAO-B; conditions: cited from earlier work

logPe [2]: smaller than −7.99
concentration reached in the brain [3]: too low to be reliably detected
Papp at 5 h, 200 µM ([5]; pH 3.7): 0.0102 ×10⁻⁶ cm/s
Papp at 5 h, 200 µM ([5]; pH 4.7): 0.00891 ×10⁻⁶ cm/s
Papp at 5 h, 200 µM ([5]; pH 5.7): 0.00603 ×10⁻⁶ cm/s
Papp at 5 h, 200 µM ([5]; pH 6.4): 0.0024 ×10⁻⁶ cm/s
Papp at 5 h, 200 µM ([5]; pH 7.4): 0.00676 ×10⁻⁶ cm/s
Papp at 5 h, 200 µM ([5]; pH 7.8): 0.00275 ×10⁻⁶ cm/s
SMILES: N[C@@H](Cc1ccc(O)c(O)c1)C(=O)O [L-Dopa]
time to peak plasma levels [1]: 30 to 60 min
plasma half-life of L-dopa [4]: 51 to 97 min
percentage of viable cells remaining [6]: 79.3 ± 13.0%
viability at 24 h, 1 µM [7]: 102 ± 4.19%
viability at 24 h, 10 µM [7]: 105 ± 5.24%
viability at 24 h, 100 µM [7]: 79%
half-life [8]: approximately 90 min
fraction of the administered oral dose reaching the brain unchanged ([8]; oral, estimated): less than 1%

prodrug concentration remaining ([9]; 17 h): 64 to 68 µM
stability in plasma ([9]; up to 8 h): stable
solubility at 24 h ([10]; aqueous buffer, potassium phosphate buffer pH 7.4, 6000 μg/mL theoretical, 24 h, read-out: Solubility, Amount Measured): 6140 ± 730 µg/mL (≈ 16.2 mM)
solubility at 24 h ([10]; water, 6000 μg/mL theoretical, 24 h, read-out: Solubility, Amount Measured): 6280 ± 747 µg/mL (≈ 16.6 mM)
solubility at 24 h ([10]; water and potassium phosphate buffer, aqueous buffer, water and buffer pH 7.4, read-out: minimum solubility): ≥ 6000 µg/mL
concentration reached in the brain [3]: too low to be reliably detected
prodrug concentration remaining ([11]; 17 h): 70.5 µM
stability in plasma ([11]; up to 8 h): relatively stable
Papp at 5 h, 200 µM ([5]; pH 3.7): 0.00955 ×10⁻⁶ cm/s
Papp at 5 h, 200 µM ([5]; pH 4.7): 0.0155 ×10⁻⁶ cm/s
Papp at 5 h, 200 µM ([5]; pH 5.7): 0.0195 ×10⁻⁶ cm/s
Papp at 5 h, 200 µM ([5]; pH 6.4): 0.0195 ×10⁻⁶ cm/s
Papp at 5 h, 200 µM ([5]; pH 7.4): 0.0295 ×10⁻⁶ cm/s
Papp at 5 h, 200 µM ([5]; pH 7.8): 0.0468 ×10⁻⁶ cm/s
half-life at 200 µM ([12]; approximate, read-out: t½): ~60 min
prodrug remaining ([12]; 4 h incubation): 37%
logD ([13]; n-octanol/potassium phosphate buffer, pH 7.4, LogD, pH 7.4): 0.199 ± 0.002
logD ([13]; n-octanol/potassium phosphate buffer, pH 7.8, LogD, pH 7.8): 0.319 ± 0.003
logD ([13]; pH 6.4): < 0
logD ([13]; pH 6.4, listed as Prodrug): –4.58 ± 0.002
chemical stability in aqueous buffer ([14]; pH 3.7–7.4, up to 11 h): stable
prodrug concentration remaining ([14]; pH 7.8, 11 h, relative to first injection): 90.3%
pKa ([15]; amine group, titration with KOH in water): 7.25 ± 0.16
fraction existing as neutral uncharged species ([15]; pH 5.5): 1–2%
fraction existing as neutral uncharged species ([15]; pH 7.4): approximately 59%
SMILES: N[C@@H](Cc1ccc(O)c(O)c1)C(=O)NCCNC(=O)c1ccc(Cl)cn1 [L-dopa–lazabemide prodrug]
striatal DOPAC levels ([3]; 63.5 µmol/kg intraperitoneal, 60 min, vs saline): significant reduction
striatal serotonin and 5-HIAA levels ([3]; 63.5 µmol/kg oral gavage or ip, 60 min): not altered
striatal dopamine levels ([3]; 63.5 µmol/kg oral gavage or ip, 60 min, vs saline): does not enhance
percentage of viable cells remaining [6]: 34.9 ± 7.94%
viability at 24 h, 1 µM [7]: 112 ± 12%
viability at 24 h, 10 µM [7]: 52.1 ± 14%
viability at 24 h, 100 µM [7]: 35%

logD ([16]; pH 6.4, LogD): -1.18
logD ([16]; pH 7.4, LogD): -0.68
logD ([16]; pH 7.8, LogD): -0.63
concentration reached in the brain [3]: too low to be reliably detected
Papp at 5 h, 200 µM ([5]; pH 3.7): 0.0427 ×10⁻⁶ cm/s
Papp at 5 h, 200 µM ([5]; pH 4.7): 0.0871 ×10⁻⁶ cm/s
Papp at 5 h, 200 µM ([5]; pH 5.7): 0.148 ×10⁻⁶ cm/s
Papp at 5 h, 200 µM ([5]; pH 6.4): 0.355 ×10⁻⁶ cm/s
Papp at 5 h, 200 µM ([5]; pH 7.4): 1.62 ×10⁻⁶ cm/s
Papp at 5 h, 200 µM ([5]; pH 7.8): 2.14 ×10⁻⁶ cm/s
SMILES: NCCNC(=O)c1ccc(Cl)cn1 [Lazabemide]
time for enzyme activity to return to baseline after drug discontinuation ([17]; MAO-B): ≤ 36 h
inhibition of brain MAO-B ([17]; at least 0.4 mg/kg every 12 h, patients with early Parkinson’s disease): > 90%
